Test results published in patent US20250242006A1, “DRY POWDER COMPOSITIONS COMPRISING EUKARYOTIC CELLS AND METHOD OF THEIR MANUFACTURE AND USE” (BOARD OF REGENTS, THE UNIVERSITY OF TEXAS SYSTEM, priority 2021, published 2025).

Tested on: J774A.1 cells
Experiment: Viability of J774A.1 cells after thin-film freeze-drying (TFFD), trypan blue stain
Type: cell-based, murine
Source text: Excipients that were used for their ability to preserve the cells includes disaccharide such as Trehalose, antioxidants such as EGCG, D-α-tocopherol succinate, D-α-tocopherol PEG1000 succinate, Trolox, glutathione, and L-ascorbic acid, polymers such as PVP-40, P-188, dextrin, dextran, and HSA. An equivalent volume of the above-mentioned excipients in complete DMEM or Dulbecco phosphate buffered saline (DPBS) was mixed with cells at final cell concentration of 2.5×10^6 cells/ml for J774A.1 macrophages or 1.0×10^6 cells/mL for THP-1 cells. Cells mixed with trehalose and antioxidant were incubated at 37° C. in 5% CO2 incubator. Polymers and proteins were added to the cells without incubation. The TFF technique was applied to the cell suspension by dropping them as droplets of 3.6-3.8 mm in diameter, 200 μl in 7-8 drops, from a distance of 1-10 cm onto the surface of a cryogenically cooled glass (˜−80° C. achieved using dry ice), which were then stored in −80° C. for 1 h until the lyophilization process. The lyophilizer shelf temperature was set at −35° C., with vacuum pressure at 100 mTorr for 12 h. To measure the viability of the cells after TFFD, the powders were resuspended in DMEM media or DPBS, and cell viability was assessed after trypan blue stain (0.4%, Gibco, Grand Island, NY) using a TC20 Bio-Rad automatic cell counter (Hercules, CA).

SMILES | effect on J774A.1 cell viability after TFFD (antioxidant at 800 μg/ml) | effect on J774A.1 cell viability after TFFD (antioxidant at 500 µM)
Cc1c(C)c2c(c(C)c1OC(=O)CCC(=O)O)CC[C@@](C)(CCC[C@H](C)CCC[C@H](C)CCCC(C)C)O2 [D-α-tocopherol succinate] | helped improve the viability | –
Cc1c(C)c2c(c(C)c1O)CCC(C)(C(=O)O)O2 (centres unmarked) [Trolox] | – | helped improve the viability
